Results: patent publication US20250171431A1, “HETEROCYCLIC INHIBITORS OF IGF-1R FOR TREATMENT OF DISEASE” (HORIZON THERAPEUTICS IRELAND DAC, priority 2023, published 2025)

The compounds below were run against IGF-1R (Homo sapiens (Human), UniProt P08069) (assay: Example B-1: IGF-1R Assay (PC3 cells, IGF1 stimulation, AlphaLISA)). Settings: 200 ng/mL IGF1 stimulation, read-out: Biological Activity against IGF-1R IC50.
Format: cell-based
Procedure: 50K PC3 cells were seeded on day 1 in 50 μL of media in 96-well plate and incubated overnight at 37° C., 5% CO2. On day 2, all cells were expected to be at 80-90% confluency. Cells were starved for two hours by changing the media to 90 μL of EMEM serum-free media and incubated for 2 hours. Next, cells were treated with 10 μL of 10× concentrated and 3× serially diluted compounds for two hours. It makes 1× of compounds in 100 μL media. This was followed by stimulation of cells with 11×IGF1 for 30 min in 10 μL of serum-free EMEM media at the final concentration of 200 ng/mL.
The media was removed and replaced by 50 μL of 1× lysis buffer from the AlphaLISA kit (with 1× of cOmplete™ protease inhibitor). The plates were sealed, and cells were allowed to lyse for 10 min in the shaker before storing the plate at −20° C. until used. The AlphaLISA assay with processed cell lysates were performed as described in the protocol. Briefly, 10 μL of the undiluted sample were loaded to 384 well Optiplates and 5 μL of the acceptor mix (as described in the AlphaLISA kit) was added to each well. The plates were sealed and briefly vortexed followed by the incubation at RT for 3 hours. In the dark, 5 μL of donor mix was added to each well. All plates were sealed and stored at RT overnight. The plates were read in EnVision reader using standard AlphaLISA settings.
Compound activity was analyzed using CBIS data analysis suite (ChemInnovation, CA). Percentage inhibition was calculated using the following formula: % Inhibition=100%×(1−(mean RLU of test sample−mean RLU of vehicle control)/(mean RLU of EC80 control−mean RLU of vehicle control)). The activity for representative examples of the invention is shown in the following table, wherein A: IC50≤500 nM; B: 500 nM<IC50≤2 μM; C: 2 μM<IC50≤10 μM; D: IC50>10 μM.

IGF-1R, sequence (P08069 31-1367): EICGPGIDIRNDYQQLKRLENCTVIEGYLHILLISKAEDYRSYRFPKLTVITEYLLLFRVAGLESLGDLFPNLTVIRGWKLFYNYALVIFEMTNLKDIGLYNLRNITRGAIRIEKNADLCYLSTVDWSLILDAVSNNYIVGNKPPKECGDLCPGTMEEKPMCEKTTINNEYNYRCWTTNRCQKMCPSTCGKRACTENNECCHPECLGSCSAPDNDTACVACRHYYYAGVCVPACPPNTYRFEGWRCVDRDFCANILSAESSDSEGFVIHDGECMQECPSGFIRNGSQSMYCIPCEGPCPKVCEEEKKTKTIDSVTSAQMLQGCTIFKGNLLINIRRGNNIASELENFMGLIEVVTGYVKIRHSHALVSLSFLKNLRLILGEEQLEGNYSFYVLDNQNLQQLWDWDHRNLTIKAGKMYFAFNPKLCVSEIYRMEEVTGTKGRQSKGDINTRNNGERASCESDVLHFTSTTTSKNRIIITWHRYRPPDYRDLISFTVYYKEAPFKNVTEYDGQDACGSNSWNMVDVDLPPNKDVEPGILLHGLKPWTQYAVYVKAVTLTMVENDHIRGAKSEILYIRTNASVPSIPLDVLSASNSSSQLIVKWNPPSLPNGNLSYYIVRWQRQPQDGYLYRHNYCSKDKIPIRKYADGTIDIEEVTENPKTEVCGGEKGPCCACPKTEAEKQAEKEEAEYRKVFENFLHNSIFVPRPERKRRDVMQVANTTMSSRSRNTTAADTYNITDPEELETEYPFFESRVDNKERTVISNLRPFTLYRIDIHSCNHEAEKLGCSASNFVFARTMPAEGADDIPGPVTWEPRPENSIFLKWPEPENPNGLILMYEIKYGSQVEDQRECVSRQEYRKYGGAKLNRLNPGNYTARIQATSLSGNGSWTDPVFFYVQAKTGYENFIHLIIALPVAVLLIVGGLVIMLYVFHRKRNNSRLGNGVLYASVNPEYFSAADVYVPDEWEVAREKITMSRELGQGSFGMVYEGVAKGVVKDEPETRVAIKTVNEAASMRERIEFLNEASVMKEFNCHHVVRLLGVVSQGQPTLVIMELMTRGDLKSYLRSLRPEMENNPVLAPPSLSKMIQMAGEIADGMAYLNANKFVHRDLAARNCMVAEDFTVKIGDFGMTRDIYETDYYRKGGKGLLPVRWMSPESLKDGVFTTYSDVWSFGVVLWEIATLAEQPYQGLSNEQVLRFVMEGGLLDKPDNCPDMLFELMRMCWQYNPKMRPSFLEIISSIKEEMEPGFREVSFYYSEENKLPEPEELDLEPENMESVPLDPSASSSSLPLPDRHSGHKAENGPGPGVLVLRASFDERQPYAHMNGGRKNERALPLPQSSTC

SMILES | IC50
COc1cc(Nc2nccc(Nc3cnc4cc(NC(C)=O)ccc4c3)n2)ccc1O[C@H]1C[C@@H](N(C)C)C1 [Compound 9, N-[3-(2-{3-methoxy-4-[(1s,3s)-3-(dimethylamino)cyclobutoxy]phenylamino}-4-pyrimidinylamino)-7-quinolyl]acetamide] | ≤ 500 nM
COc1cc(Nc2nccc(Nc3cnc4ccc(Cl)cc4c3)n2)cnc1O[C@H]1C[C@@H](N(C)C)C1 [Compound 131, N4-(6-chloroquinolin-3-yl)-N2-(6-((1s,3s)-3-(dimethylamino)cyclobutoxy)-5-methoxypyridin-3-yl)pyrimidine-2,4-diamine] | ≤ 500 nM
COc1cc(Nc2nccc(Nc3cnc4c(c3)CC(C)(C)CC4)n2)ccc1O[C@H]1C[C@H](N(C)C)C1 [Compound 339, 4-(6,6-dimethyl-5,6,7,8-tetrahydro-3-quinolylamino)-2-{3-methoxy-4-[(1r,3r)-3-(dimethylamino)cyclobutoxy]phenylamino}pyrimidine] | ≤ 500 nM
COc1cc(Nc2nccc(Nc3cnc4c(c3)SCCC4)n2)ccc1OCCCN1CCCCC1 [Compound 378, 4-(3,4-dihydro-2H-1-thia-5-azanaphth-7-ylamino)-2-[3-methoxy-4-(3-piperidinopropoxy)phenylamino]pyrimidine] | ≤ 500 nM
C#Cc1ccc2ncc(Nc3ccnc(Nc4ccc(O[C@H]5C[C@@H](N(C)C)C5)c(OC)c4)n3)cc2c1 [Compound 302, 4-(6-ethynyl-3-quinolylamino)-2-{3-methoxy-4-[(1s,3s)-3-(dimethylamino)cyclobutoxy]phenylamino}pyrimidine] | ≤ 500 nM
COc1cc(Nc2nccc(Nc3cc4cc(F)c(F)cc4[nH]c3=O)n2)ccc1O[C@H]1C[C@@H](N(C)C)C1 [Compound 119, 6,7-difluoro-3-(2-{3-methoxy-4-[(1s,3s)-3-(dimethylamino)cyclobutoxy]phenyl-amino}-4-pyrimidinylamino)-1,2-dihydro-2-quinolinone] | ≤ 500 nM
COc1cc(Nc2nccc(Nc3cnc4c(c3)COC(C)(C)C4)n2)ccc1OCCCN1CCCCC1 [Compound 385, 4-(7,7-dimethyl-7,8-dihydro-5H-6-oxa-1-azanaphth-3-ylamino)-2-[3-methoxy-4-(3-piperidinopropoxy)phenylamino]pyrimidine] | 500 to 2000 nM
CN(C)[C@H]1C[C@H](Oc2ccc(Nc3nccc(Nc4cnc5ccccc5c4)n3)cc2)C1 [Compound 27, 4-(3-quinolylamino)-2-{p-[(1r,3r)-3-(dimethylamino)cyclobutoxy]phenylamino}pyrimidine] | ≤ 500 nM
COc1cc(Nc2nccc(Nc3cnc4cc(F)c(F)cc4c3)n2)cnc1N1CCC(C)(O)CC1 [Compound 156, 1-(5-((4-((6,7-difluoroquinolin-3-yl)amino)pyrimidin-2-yl)amino)-3-methoxypyridin-2-yl)-4-methylpiperidin-4-ol] | ≤ 500 nM
COc1cc(Nc2nccc(Nc3cnc4ncc(Cl)cc4c3)n2)ccc1O[C@H]1C[C@@H](N(C)C)C1 [Compound 83, 4-(6-chloro-1,8-diaza-3-naphthylamino)-2-{3-methoxy-4-[(1s,3s)-3-(dimethylamino)cyclobutoxy]phenylamino}pyrimidine] | ≤ 500 nM
COc1cc(Nc2nccc(Nc3cnc4ccc(Cl)cc4c3)n2)cnc1N1CCN(C2COC2)CC1 [Compound 481, 4-(6-chloro-3-quinolylamino)-2-{5-methoxy-6-[4-(3-oxetanyl)-1-piperazinyl]-3-pyridylamino}pyrimidine] | ≤ 500 nM
c1ccc2ncc(Nc3ccnc(Nc4ccc(OCCCN5CCCCC5)c(OCC5CCOCC5)c4)n3)cc2c1 [Compound 418] | ≤ 500 nM
COc1cc(Nc2nccc(Nc3cnc4ccc(Cl)cc4c3)n2)ccc1O[C@H]1C[C@@H](N(C)C)C1 [Compound 343, 4-(6-chloro-3-quinolylamino)-2-{3-methoxy-4-[(1s,3s)-3-(dimethylamino)cyclobutoxy]phenylamino}pyrimidine] | ≤ 500 nM
O=S1(=O)CCN(CCCOc2ccc(Nc3nccc(Nc4cnc5c(c4)OCCO5)n3)cc2)CC1 [Compound 506, 4-(3-{p-[4-(2,3-dihydro-1,4-dioxa-5-aza-7-naphthylamino)-2-pyrimidinylamino]phenoxy}propyl)-1λ^6,4-thiazinane-1,1-dione] | ≤ 500 nM
COc1cc(Nc2nccc(Nc3cnc4c(c3)CS(=O)(=O)CC4)n2)ccc1OCCCN1CCCCC1 [Compound 391, 3-{2-[3-methoxy-4-(3-piperidinopropoxy)phenylamino]-4-pyrimidinylamino}-5,6,7,8-tetrahydro-6H,6H-6λ^6-thia-1-azanaphthalene-6,6-dione] | 2000 to 10000 nM
COc1cc(Nc2nccc(Nc3cnc4ccc(Cl)cc4c3)n2)cnc1O[C@@H]1C[C@H](N(C)C)C1(C)C [Compound 258, 2-{6-[(1R,3S)-3-(dimethylamino)-2,2-dimethylcyclobutoxy]-5-methoxy-3-pyridylamino}-4-(6-chloro-3-quinolylamino)pyrimidine] | ≤ 500 nM
COc1cc(Nc2nccc(Nc3cc4ccccc4[nH]c3=O)n2)ccc1O[C@H]1C[C@H](N(C)C)C1 [Compound 249, 3-(2-{3-methoxy-4-[(1r,3r)-3-(dimethylamino)cyclobutoxy]phenyl-amino}-4-pyrimidinylamino)-2(1H)-quinolinone] | ≤ 500 nM
COC1CCc2ncc(Nc3ccnc(Nc4ccc(OCCCN5CCOCC5)cc4)n3)cc2C1 (stereo not shown) [Compound 67, 4-(6-methoxy-5,6,7,8-tetrahydro-3-quinolylamino)-2-[p-(3-morpholinopropoxy)phenylamino] pyrimidine] | 500 to 2000 nM
COc1cc(Nc2nccc(Nc3ncc4c(Cl)cccc4n3)n2)ccc1O[C@H]1C[C@@H](N(C)C)C1 [Compound 306, 4-(5-chloro-2-quinazolinylamino)-2-{3-methoxy-4-[(1s,3s)-3-(dimethylamino)cyclobutoxy]phenylamino}pyrimidine] | > 10000 nM
O=S1(=O)CCc2ncc(Nc3ccnc(Nc4ccc(OCCCN5CCOCC5)cc4)n3)cc2C1 [Compound 390, 3-{2-[p-(3-morpholinopropoxy)phenylamino]-4-pyrimidinylamino}-5,6,7,8-tetrahydro-6H,6H-6λ^6-thia-1-azanaphthalene-6,6-dione] | 500 to 2000 nM
COc1cc(Nc2nccc(Nc3cnc4[nH]ccc4c3)n2)ccc1O[C@H]1C[C@@H](N(C)C)C1 [Compound 301, 4-(1H-1,7-diazainden-5-ylamino)-2-{3-methoxy-4-[(1s,3s)-3-(dimethylamino)cyclobutoxy]phenylamino}pyrimidine] | ≤ 500 nM

The remaining lines, values ahead:

IC50 | SMILES
2000 to 10000 nM | COc1cc(Nc2nccc(Nc3cnc4cc(Br)cnc4c3)n2)ccc1OC1CN(C)C1 [Compound 292, 4-(7-bromo-1,5-diaza-3-naphthylamino)-2-[3-methoxy-4-(1-methyl-3-azetidinyloxy)phenylamino] pyrimidine]
≤ 500 nM | COc1cc(Nc2nccc(Nc3cc4cc(Br)ccc4[nH]c3=O)n2)ccc1O[C@H]1C[C@H](N(C)C)C1 [Compound 111]
≤ 500 nM | COc1cc(Nc2nccc(Nc3ccc4nc(C)ccc4c3)n2)ccc1OCCCN1CCCCC1 [Compound 456, 2-[3-methoxy-4-(3-piperidinopropoxy)phenylamino]-4-(2-methyl-6-quinolylamino) pyrimidine]
≤ 500 nM | CCc1ccc2cc(Nc3ccnc(Nc4ccc(OCCCN5CCCCC5)c(OC)c4)n3)cnc2c1 [Compound 72, 4-(7-ethyl-3-quinolylamino)-2-[3-methoxy-4-(3-piperidinopropoxy)phenylamino]pyrimidine]
≤ 500 nM | COc1cc(Nc2nccc(Nc3cnc4ccc(Cl)cc4c3)n2)ccc1N1CCOCC1 [Compound 462, 4-(6-chloro-3-quinolylamino)-2-(3-methoxy-4-morpholinophenylamino) pyrimidine]
≤ 500 nM | O=S1(=O)CCN([C@H]2C[C@H](Oc3ccc(Nc4nccc(Nc5cnc6ccc(Br)cc6c5)n4)cc3)C2)CC1 [Compound 347]
≤ 500 nM | COc1cc(N2CCC(C)(O)CC2)ncc1Nc1nccc(Nc2cc3cccc(F)c3[nH]c2=O)n1 [Compound 230, 8-fluoro-3-{2-[6-(4-hydroxy-4-methyl-1-piperidyl)-4-methoxy-3-pyridylamino]-4-pyrimidinylamino}-1,2-dihydro-2-quinolinone]
≤ 500 nM | COc1cc(Nc2nccc(Nc3cnc4ccc(Cl)cc4c3)n2)ccc1O[C@H]1C[C@H](N2CCS(=O)(=O)CC2)C1 [Compound 25, 4-[(1r,3r)-3-{4-[4-(6-chloro-3-quinolylamino)-2-pyrimidinylamino]-2-methoxyphenoxy}cyclobutyl]-1λ^6,4-thiazinane-1,1-dione]
≤ 500 nM | COc1cc(Nc2nccc(Nc3cnc4ccc(Cl)cc4c3)n2)cnc1OC1CCNCC1(F)F (stereo not shown) [Compound 257, 4-(6-chloro-3-quinolylamino)-2-[6-(3,3-difluoro-4-piperidyloxy)-5-methoxy-3-pyridylamino]pyrimidine]
≤ 500 nM | COc1cc(Nc2nccc(Nc3cnc4ccc(C5CC5)cc4c3)n2)ccc1OCCCN1CCCCC1 [Compound 102, 4-(6-cyclopropyl-3-quinolylamino)-2-[3-methoxy-4-(3-piperidinopropoxy)phenylamino]pyrimidine]
